Earlier results, collected in patent publication US20120289567A1, “COMBINATIONS OF DARIFENACIN AND SALIVARY STIMULANTS FOR THE TREATMENT OF OVERACTIVE BLADDER” (THERAVIDA, INC., priority 2011, published 2012).

Details: 5 mg of pilocarpine

For `CC[C@@H]1C(=O)OC[C@@H]1Cc1cncn1C` [pilocarpine], the “time of maximum saliva output after administration” value is listed as “about 30 minutes”.
